Results: US20240041042A1, “1-(PYRIDYL)-5-AZINYLPYRAZOLE DERIVATIVES, AND THEIR USE FOR CONTROL OF UNDESIRED PLANT GROWTH” (Bayer Aktiengesellschaft, priority 2020, published 2024)

How the values were obtained:
Format in all cases: in vivo
Lolium rigidum (LOLRI) = assay: Pre-emergence herbicidal action against LOLRI
Outline: (§1)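 Pre-emergence soil-surface spray of compound, formulated as wettable powder or emulsion concentrate, in aqueous suspension or emulsion with 0.5% additive (600 l/ha; rate 320 g/ha or less). Activity rated visually after roughly 3 weeks in the greenhouse as a percentage of untreated controls, 0% meaning no difference.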

[1] = system: Pharbitis purpurea (PHBPU); assay: Pre-emergence herbicidal action against PHBPU
Outline: as §1

Avena fatua (AVEFA) = assay: Post-emergence herbicidal action against AVEFA; details: visual rating about 3 weeks after treatment
Outline: (§2)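 Rates were 320 g/ha or below, applied as aqueous WP/EC spray with 0.5% additive (600 l/ha) onto one-leaf-stage plants. About 3 weeks later in the greenhouse, damage was scored visually against untreated plants on a 0–100% scale, where 100% means plants died.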

Viola tricolor (VIOTR) [2] = assay: Post-emergence herbicidal action against VIOTR
Outline: as §2

[3] = system: Matricaria inodora (MATIN); assay: Post-emergence herbicidal action against MATIN
Outline: as §2

Viola tricolor (VIOTR) [4] = assay: Pre-emergence herbicidal action against VIOTR
Outline: as §1

[5] = system: Pharbitis purpurea (PHBPU); assay: Post-emergence herbicidal action against PHBPU
Outline: as §2

[6] = system: Verconica persica (VERPE); assay: Pre-emergence herbicidal action against VERPE
Outline: as §1

[7] = system: Verconica persica (VERPE); assay: Post-emergence herbicidal action against VERPE
Outline: as §2

Setaria viridis (SETVI) = assay: Pre-emergence herbicidal action against SETVI
Outline: as §1

Row | Compound | Pre-emergence action against LOLRI in % (Lolium rigidum (LOLRI); dosage 80 g/ha) [%] | Pre-emergence action against LOLRI in % (Lolium rigidum (LOLRI); dosage 320 g/ha) [%] | Pre-emergence action against PHBPU in % ([1]; dosage 80 g/ha) [%] | Pre-emergence action against PHBPU in % ([1]; dosage 320 g/ha) [%] | Post-emergence action against AVEFA in % (Avena fatua (AVEFA); 80 g/ha) [%] | Post-emergence action against AVEFA in % (Avena fatua (AVEFA); 320 g/ha) [%] | Post-emergence action against VIOTR in % (Viola tricolor (VIOTR) [2]; 80 g/ha) [%] | Post-emergence action against VIOTR in % (Viola tricolor (VIOTR) [2]; 320 g/ha) [%] | Post-emergence action against MATIN in % ([3]; dosage 320 g/ha) [%] | Pre-emergence action against VIOTR in % (Viola tricolor (VIOTR) [4]; 320 g/ha, Viola tricolor) [%] | Pre-emergence action against VIOTR in % (Viola tricolor (VIOTR) [4]; dosage 80 g/ha) [%] | Post-emergence action against PHBPU in % ([5]; dosage 80 g/ha) [%] | Post-emergence action against PHBPU in % ([5]; dosage 320 g/ha) [%] | Pre-emergence action against VERPE in % ([6]; dosage 80 g/ha) [%] | Pre-emergence action against VERPE in % ([6]; dosage 320 g/ha) [%] | Post-emergence action against VERPE in % ([7]; 320 g/ha, VERPE) [%] | Post-emergence action against VERPE in % ([7]; dosage 80 g/ha) [%] | Pre-emergence action against SETVI in % (Setaria viridis (SETVI); dosage 80 g/ha) [%] | Pre-emergence action against SETVI in % (Setaria viridis (SETVI); dosage 320 g/ha) [%] | Post-emergence action against MATIN in % ([3]; dosage 80 g/ha) [%]
1 | COCCOC(=O)COc1nn(-c2ncccc2C)c(-c2cncc(F)c2)c1Br [Example I-212] | 80 | 90 | 90 | 90 | 80 | 90 | 80 | 80 | 80 | 100 | 100 | 90 | 100 | 80 | 100 | 80 | 80 | 100 | 100 | 
2 | COC(=O)CNC(=O)[C@@H](C)Oc1nn(-c2ccccn2)c(-c2cncc(F)c2)c1Br [Example I-187] | 90 | 100 | 90 | 90 |  | 80 | 80 | 90 | 80 | 100 | 100 |  | 80 | 90 | 90 | 90 | 90 | 100 | 100 | 
3 | COC(=O)[C@@H](C)Oc1nn(-c2ncccc2F)c(-c2ccc(F)nc2)c1I [Example I-341] | 100 | 100 |  | 90 | 80 | 80 | 80 | 80 | 90 | 100 | 100 | 90 | 100 |  | 100 | 90 | 90 | 80 | 100 | 
4 | COC(=O)COc1nn(-c2ncccc2F)c(-c2ccc(F)nc2)c1Br [Example I-07] |  | 100 |  | 90 |  | 90 | 90 | 90 | 100 | 100 | 90 | 80 | 80 |  | 100 | 90 | 90 |  | 100 | 90
5 | C[C@@H](Oc1nn(-c2ncccc2F)c(-c2ccc(F)nc2)c1I)C(=O)O [Example I-343] | 90 | 90 | 80 | 90 | 80 | 80 | 80 | 80 | 80 | 100 | 100 |  | 90 |  | 100 | 80 | 80 | 100 | 100 | 
6 | O=C(O)COc1nn(-c2ncccc2F)c(-c2ccc(F)nc2)c1Br [Example I-08] | 80 | 100 |  | 80 | 80 | 90 | 80 | 80 | 90 | 100 | 100 | 80 | 80 |  | 100 | 90 | 90 | 90 | 100 | 90
7 | CCOC(=O)[C@@H](C)Oc1nn(-c2ccccn2)c(-c2cncc(F)c2)c1Cl [Example I-184] | 100 | 100 | 80 | 90 | 80 | 90 | 80 | 90 | 80 | 100 | 100 | 90 | 90 | 90 | 100 | 90 | 90 | 100 | 100 | 
8 | C[C@@H](Oc1nn(-c2nc(F)ccc2F)c(-c2cncc(F)c2)c1C1CC1)C(=O)O [Example I-180] | 100 | 100 | 90 | 90 | 80 | 90 | 80 | 80 | 90 | 100 | 100 |  |  | 100 | 100 | 90 | 80 | 100 | 100 | 
9 | COC(=O)C(C)NC(=O)[C@@H](C)Oc1nn(-c2ccccn2)c(-c2cncc(F)c2)c1Br (some centres unmarked) [Example I-190] | 100 | 100 | 90 | 90 |  | 80 | 80 | 90 | 80 | 100 | 100 |  |  | 80 | 100 | 90 | 80 | 90 | 100 | 
